Source: PubChem BioAssay (NCI)
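At the GI50, growth is halved. At the TGI there is no net growth.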

Legend:
Assay in all cases: growth of human tumour cells (NCI), 384-well format
A498 renal = test system: A498 renal
RPMI-8226 leukemia = test system: RPMI-8226 leukemia
NCI-H226 lung = test system: NCI-H226 lung
NCI-H522 lung = test system: NCI-H522 lung
NCI-H460 NSCLC = test system: NCI-H460 NSCLC
HL-60(TB) leukemia = test system: HL-60(TB) leukemia
UACC-257 melanoma = test system: UACC-257 melanoma
NCI/ADR-RES ovarian = test system: NCI/ADR-RES ovarian
U251 glioblastoma = test system: U251 glioblastoma
K-562 leukemia = test system: K-562 leukemia
SN12C renal = test system: SN12C renal
SK-MEL-28 melanoma = test system: SK-MEL-28 melanoma
SF-295 CNS = test system: SF-295 CNS

## CNC(=O)c1ccccc1Nc1nc(Nc2ccc3c(c2OC)CCC[C@H](N2CCN(CCO)CC2)C3)ncc1Cl
A498 renal
  GI50: 0.488 µM
  TGI: 1.7 µM
RPMI-8226 leukemia
  GI50: 1.15 µM
  TGI: 2.42 µM
NCI-H226 lung
  GI50: 0.686 µM
  TGI: 2.7 µM
NCI-H522 lung
  GI50: 0.862 µM
  TGI: 2.2 µM
NCI-H460 NSCLC
  GI50: 1.14 µM
  TGI: 2.48 µM
HL-60(TB) leukemia
  GI50: 0.215 µM
  TGI: 0.551 µM
UACC-257 melanoma
  GI50: 0.327 µM
  TGI: 0.993 µM
NCI/ADR-RES ovarian
  GI50: 2.12 µM
  TGI: 4.37 µM
U251 glioblastoma
  GI50: 1.43 µM
  TGI: 2.83 µM
K-562 leukemia
  GI50: 1.43 µM
  TGI: 2.82 µM
SN12C renal
  GI50: 1.4 µM
  TGI: 4.34 µM
SK-MEL-28 melanoma
  GI50: 1.39 µM
  TGI: 2.7 µM
SF-295 CNS
  GI50: 1.71 µM
  TGI: 3.11 µM
